Each molecule was assayed on human monocyte stimulated cytokine production (TNF-α) (assay: Monocyte assay (LPS-stimulated TNF-α production)). Conditions: 300 nM, human monocytes, LPS.
Type: cell-based
Protocol: Effect of IKK-β inhibition on human monocyte stimulated cytokine production was assessed as follows: Monocytes were isolated from heparinized whole blood by Ficoll gradient, followed by purification of CD14+ cells using MACS magnetic cell separation beads. Isolated monocytes were then adhered to 96-well culture plates at 1×10^6 cells/mL in RPMI 1640 10% FBS (JRH Biosciences, Lenexa Kans.) for 2 h. Test compounds are added to the wells 30 minutes prior to stimulation with a final vehicle concentration of 0.1% DMSO. Monocytes were activated by the addition of 200 ng/mL endotoxin (LPS; E. coli serotype 026:B6) (Sigma, St. Louis, Mo.) and incubated for 24 hrs at 37 C. Cell-free supernates were analyzed by Alphascreen™ (Perkin Elmer, Waltham, Mass.) for TNF-α using R&D Systems matched pair Abs. Viability of the cells was determined by 10% trypan blue exclusion.

| Structure (SMILES) | inhibition at 0.3 µM [%] |
| --- | --- |
| NC(=O)c1cc(-c2cccs2)cc2c(C3CCCS(=O)(=O)C3)c[nH]c12 (centres unmarked) [Example 222, 3-(1,1-Dioxidotetrahydro-2H-thiopyran-3-yl)-5-(2-thienyl)-1H-indole-7-carboxamide] | 0 to 100 |
| NC(=O)c1cc(-c2csc(CN3CCC3)c2)cc2c(C3CC4CCC(C3)S4(=O)=O)c[nH]c12 (stereo not drawn) [Example 204, 3-[(3-endo)-8,8-Dioxido-8-thiabicyclo[3.2.1]oct-3-yl]-5-[5-(1-azetidinylmethyl)-3-thienyl]-1H-indole-7-carboxamide] | 0 to 100 |

Same assay, conditions: human CD14+ monocytes, 200 ng/mL LPS, 24 hrs, values given as 'about', read-out: pIC50 in the monocyte assay (converted)

| Structure (SMILES) | IC50 [nM] |
| --- | --- |
| CN(C)Cc1cccc(-c2cc(C(N)=O)c3[nH]cc(C4CCS(=O)(=O)CC4)c3c2)c1 [Example 79] | 5.01 to 1000 |
| CCN(CC)Cc1cc(-c2cc(C(N)=O)c3[nH]cc(C4CCS(=O)(=O)CC4)c3c2)cs1 [Example 76, 5-{5-[(diethylamino)methyl]-3-thienyl}-3-(1,1-dioxidotetrahydro-2H-thiopyran-4-yl)-1H-indole-7-carboxamide] | 5.01 to 1000 |
| NC(=O)c1c(F)c(-c2ccccc2)cc2c(C3CCS(=O)(=O)CC3)c[nH]c12 [Example 168, 3-(1,1-Dioxidotetrahydro-2H-thiopyran-4-yl)-6-fluoro-5-phenyl-1H-indole-7-carboxamide] | 5.01 to 1000 |
| COC(=O)c1cc(-c2ccc(F)cc2)cc2c([C@H]3CCSC3)c[nH]c12 [Example 173, methyl 5-(4-fluorophenyl)-3-[(3R)-tetrahydro-3-thienyl]-1H-indole-7-carboxylate] | 5.01 to 1000 |
| CC(C)[C@H](C)NCc1cccc(-c2cc(C(N)=O)c3[nH]cc(C4CCS(=O)(=O)CC4)c3c2)c1 [Example 80, 5-[3-({[(1S)-1,2-Dimethylpropyl]amino}methyl)phenyl]-3-(1,1-dioxidotetrahydro-2H-thiopyran-4-yl)-1H-indole-7-carboxamide] | 5.01 to 1000 |
| NC(=O)c1cc(-c2ccc3c(c2)CCO3)cc2c(C3CCS(=O)(=O)CC3)c[nH]c12 [Example 69, 5-(2,3-Dihydro-1-benzofuran-5-yl)-3-(1,1-dioxidotetrahydro-2H-thiopyran-4-yl)-1H-indole-7-carboxamide] | 5.01 to 1000 |
| NC(=O)c1cc(-c2ccsc2)c(F)c2c(C3CCS(=O)(=O)CC3)c[nH]c12 [Example 170, 3-(1,1-Dioxidotetrahydro-2H-thiopyran-4-yl)-4-fluoro-5-(3-thienyl)-1H-indole-7-carboxamide] | 5.01 to 1000 |

Next, values leading:

| IC50 [nM] | Structure (SMILES) |
| --- | --- |
| 5.01 to 1000 | CC(C)[C@H]1C[C@H](c2c[nH]c3c(C(N)=O)cc(-c4cccs4)cc23)CCS1(=O)=O (racemic) [Example 245, (racemic)-3-[trans-2-(1-Methylethyl)-1,1-dioxidotetrahydro-2H-thiopyran-4-yl]-5-(2-thienyl)-1H-indole-7-carboxamide] |
| 5.01 to 1000 | NC(=O)c1cc(-c2ccccc2)cc2c(C3CCS(=O)(=O)CC3)c[nH]c12 [Example 1, 3-(1,1-Dioxidotetrahydro-2H-thiopyran-4-yl)-5-phenyl-1H-indole-7-carboxamide] |
| 5.01 to 1000 | CC(C)[C@H]1C[C@H](c2c[nH]c3c(C(N)=O)cc(-c4ccsc4)cc23)CCS1(=O)=O (racemic) [Example 241, (racemic)-3-[trans-2-(1-Methylethyl)-1,1-dioxidotetrahydro-2H-thiopyran-4-yl]-5-(3-thienyl)-1H-indole-7-carboxamide] |
| 5.01 to 1000 | CC1(C)CC(c2c[nH]c3c(C(N)=O)cc(-c4ccc(S(=O)(=O)C5CCCC5)s4)cc23)CCS1(=O)=O (centres unmarked) [Example 240, 5-[5-(Cyclopentylsulfonyl)-2-thienyl]-3-(2,2-dimethyl-1,1-dioxidotetrahydro-2H-thiopyran-4-yl)-1H-indole-7-carboxamide] |
| > 1000 | CC1(C)C[C@@H](c2c[nH]c3c(C(N)=O)cc(-c4ccc(F)cc4)cc23)CCS1(=O)=O [Example 224, 3-[(4S)-2,2-Dimethyl-1,1-dioxidotetrahydro-2H-thiopyran-4-yl]-5-(4-fluorophenyl)-1H-indole-7-carboxamide] |

— patent US8071584B2 (GlaxoSmithKline LLC, priority 2007, dated 2011)
